Measurements: ChEMBL document CHEMBL5154898, “Discovery and Optimization of 5-Hydroxy-Diclofenac toward a New Class of Ligands with Nanomolar Affinity for the CaMKIIα Hub Domain” (J Med Chem, 2022)

How the values were obtained:
[1] = molecular target: T1, Calcium/calmodulin-dependent protein kinase type II subunit alpha (Rattus norvegicus, UniProt P11275); experiment: Displacement of [3H]HOCPCA from CaMK2alpha in rat brain cerebral cortex membrane homogenates assessed as inhibition constant measured after 60 mins by TopCount scintillation counting method; format: cell membranes
[2] = molecular target: T1, Calcium/calmodulin-dependent protein kinase type II subunit alpha; experiment: Displacement of [3H]NCS-382 from CaMK2alpha in rat brain cerebral cortex membrane homogenates assessed as inhibition constant measured after 60 mins by TopCount scintillation counting method; format: cell membranes
[3] = Plasma concentration in C57BL/6J mouse at 10 mg/kg , po measured after 30 mins by UPLC based tandem mass spectrometry analysis; format: ADME, organism-based
[4] = Chemical stability of compound in PBS buffer at pH 7.4 assessed as cyclized intermediate formation at 25 to 37 degreeC incubated for 7 days by HPLC based LC-MS analysis; format: physicochemical; settings: pH 7.4, 168 h, time 7 day
[5] = Chemical stability of compound in PBS buffer at pH 7.4 assessed as oxidized intermediate formation at 25 to 37 degreeC incubated for 7 days by HPLC based LC-MS analysis; format: physicochemical; settings: pH 7.4, 168 h, time 7 day
[6] = Ratio of drug concentration in brain to plasma in C57BL/6J mouse at 10 mg/kg , po measured after 30 mins by UPLC based tandem mass spectrometry analysis; format: ADME, organism-based; settings: read-out: BPR
[7] = Brain concentration in C57BL/6J mouse at 10 mg/kg , po measured after 30 mins by UPLC based tandem mass spectrometry analysis; format: ADME, organism-based; settings: read-out: Ct
[8] = molecular target: Calcium/calmodulin-dependent protein kinase type II subunit alpha (Homo sapiens, UniProt Q9UQM7); experiment: Inhibition of [3H]NCS-382 binding to CaMK2alpha (unknown origin)
[9] = molecular target: Calcium/calmodulin-dependent protein kinase type II subunit alpha (Rattus norvegicus) (UniProt P11275); experiment: Inhibition of [3H]NCS-382 binding to CaMK2alpha in rat brain cerebral cortex membrane homogenates at 100 uM measured after 60 mins by TopCount scintillation counting method relative to control; format: cell membranes
BCRP [10] = experiment: Apparent permeability across basolateral to apical side in dog MDCK-II cells expressing BCRP at 3 uM preincubated with BCRP inhibitor, Ko 143 for 15 to 30 mins followed by compound addition and measured after 60 to 90 mins by LC-MS/MS analysis; format: ADME, cell-based, Canis lupus familiaris; settings: with Ko 143 (BCRP inhibitor; concentration not stated), time 60-90 min
[11] = Ratio of drug concentration in brain to plasma in C57BL/6J mouse at 5 mg/kg , sc measured after 30 mins by UPLC based tandem mass spectrometry analysis; format: ADME, organism-based; settings: read-out: BPR
BCRP [12] = experiment: Apparent permeability across basolateral to apical side in dog MDCK-II cells expressing BCRP at 3 uM measured after 60 to 90 mins by LC-MS/MS analysis; format: ADME, cell-based, Canis lupus familiaris; settings: time 60-90 min
[13] = Plasma concentration in C57BL/6J mouse at 5 mg/kg , sc measured after 30 mins by UPLC based tandem mass spectrometry analysis; format: ADME, organism-based
BCRP [14] = experiment: Apparent permeability across apical to basolateral side in dog MDCK-II cells expressing BCRP at 3 uM preincubated with BCRP inhibitor, Ko 143 for 15 to 30 mins followed by compound addition and measured after 60 to 90 mins by LC-MS/MS analysis; format: ADME, cell-based, Canis lupus familiaris; settings: with Ko 143 (BCRP inhibitor; concentration not stated), time 60-90 min
[15] = Chemical stability of compound in PBS buffer at pH 7.4 assessed as half life at 25 degreeC incubated for 7 days by HPLC based LC-MS analysis; format: physicochemical; settings: time 7 day
MDR1 (P-gp) [16] = experiment: Apparent permeability across basolateral to apical side in dog MDCKII-MDR1 cells at 3 uM measured after 60 to 90 mins by LC-MS/MS analysis; format: ADME, cell-based, Canis lupus familiaris; settings: MDCK-MDR1, time 60-90 min
[17] = Brain concentration in C57BL/6J mouse at 5 mg/kg , sc measured after 30 mins by UPLC based tandem mass spectrometry analysis; format: ADME, organism-based; settings: read-out: Ct
MDR1 (P-gp) [18] = experiment: Apparent permeability across basolateral to apical side in dog MDCKII-MDR1 cells at 3 uM preincubated with P-gp inhibitor elacridar for 15 to 30 mins followed by compound addition and measured after 60 to 90 mins by LC-MS/MS analysis; format: ADME, cell-based, Canis lupus familiaris; settings: MDCK-MDR1, with elacridar (P-gp inhibitor; concentration not stated), time 60-90 min
MDR1 (P-gp) [19] = experiment: Apparent permeability across apical to basolateral side in dog MDCKII-MDR1 cells at 3 uM preincubated with P-gp inhibitor elacridar for 15 to 30 mins followed by compound addition and measured after 60 to 90 mins by LC-MS/MS analysis; format: ADME, cell-based, Canis lupus familiaris; settings: MDCK-MDR1, with elacridar (P-gp inhibitor; concentration not stated), time 60-90 min
[20] = Chemical stability of compound in PBS buffer at pH 7.4 assessed as half life at 37 degreeC incubated for 7 days by HPLC based LC-MS analysis; format: physicochemical; settings: time 7 day
MDR1 (P-gp) [21] = experiment: Apparent permeability across apical to basolateral side in dog MDCKII-MDR1 cells at 3 uM measured after 60 to 90 mins by LC-MS/MS analysis; format: ADME, cell-based, Canis lupus familiaris; settings: MDCK-MDR1, time 60-90 min
BCRP [22] = experiment: Apparent permeability across apical to basolateral side in dog MDCK-II cells expressing BCRP at 3 uM measured after 60 to 90 mins by LC-MS/MS analysis; format: ADME, cell-based, Canis lupus familiaris; settings: time 60-90 min
[23] = molecular target: T1, Calcium/calmodulin-dependent protein kinase type II subunit alpha; experiment: Inhibition of [3H]NCS-382 binding to CaMK2alpha in rat cerebrocortical membranes; format: cell membranes, Cerebral cortex, Membrane

T1 sequence (P11275 whole entry): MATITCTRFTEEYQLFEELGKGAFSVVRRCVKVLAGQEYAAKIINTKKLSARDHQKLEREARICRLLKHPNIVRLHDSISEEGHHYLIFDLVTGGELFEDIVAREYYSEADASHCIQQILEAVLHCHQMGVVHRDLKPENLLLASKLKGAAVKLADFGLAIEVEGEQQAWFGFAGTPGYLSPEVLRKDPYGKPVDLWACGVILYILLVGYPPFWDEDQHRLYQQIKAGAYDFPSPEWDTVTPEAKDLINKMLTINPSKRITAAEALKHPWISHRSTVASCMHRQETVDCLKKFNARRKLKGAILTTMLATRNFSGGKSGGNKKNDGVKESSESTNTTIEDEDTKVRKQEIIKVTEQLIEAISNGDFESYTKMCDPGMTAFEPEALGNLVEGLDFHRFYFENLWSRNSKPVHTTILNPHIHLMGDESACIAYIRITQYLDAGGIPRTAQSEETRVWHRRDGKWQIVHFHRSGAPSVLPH
Calcium/calmodulin-dependent protein kinase type II subunit alpha (Homo sapiens, UniProt Q9UQM7), sequence (Q9UQM7 whole entry): as the sequence (P11275 whole entry) above, with N324S counted along it
Calcium/calmodulin-dependent protein kinase type II subunit alpha (Rattus norvegicus), sequence (P11275 whole entry): as the sequence (P11275 whole entry) above

SMILES: Oc1ccc(Oc2ccccc2Cl)c(-c2nnn[nH]2)c1
- Ki [1]: 40000 nM
- Ki [2]: 25000 nM

SMILES: O=C(O)Cc1cc(O)ccc1Oc1ccccc1O
- Ki [2]: 33 nM

SMILES: O=C(O)Cc1ccc(O)cc1Oc1ccccc1Cl
- Ki [1]: 53 nM
- concentration at 0.5 h [3]: 29400 ng/mL
- Stability [4]: Stable
- Stability [5]: Stable
- Kp at 0.5 h [6]: 0.011
- concentration at 0.5 h [7]: 308 ng/mL
- Ki [2]: 27 nM

SMILES: O=C(O)Cc1cc(O)ccc1Oc1ccc([N+](=O)[O-])cc1Cl
- Ki [2]: 14 nM

SMILES: O=C(O)Cc1ccc(O)cc1
- Ki [8]: 2200 nM

SMILES: O=C(O)Cc1cc(O)ccc1Oc1c(Cl)cccc1Cl
- Ki [2]: 70 nM

SMILES: O=C(O)C(F)(F)c1cc(O)ccc1Oc1ccccc1Cl
- Ki [2]: 1200 nM

SMILES: O=C(O)/C=C/c1ccc(O)cc1 [COUMARIC ACID]
- Ki [8]: > 100000 nM

SMILES: NC(=O)Cc1cc(O)ccc1Oc1ccccc1Cl
- inhibition [9]: < 50%
- Ki [2]: > 100000 nM

SMILES: O=C(O)Cc1ccc(O)cc1Cc1ccccc1
- Ki [2]: 500 nM

SMILES: O=C(O)Cc1ccc(O)cc1Nc1c(Cl)cccc1Cl
- Papp B→A at 3 µM (BCRP [10]): 4.03 ×10⁻⁶ cm/s
- Kp at 0.5 h [11]: 0.013
- Papp B→A at 3 µM (BCRP [12]): 19.1 ×10⁻⁶ cm/s
- concentration at 0.5 h [13]: 6790 ng/mL
- Papp A→B at 3 µM (BCRP [14]): 3.05 ×10⁻⁶ cm/s
- half-life [15]: 10 h
- Papp B→A at 3 µM (MDR1 (P-gp) [16]): 3.73 ×10⁻⁶ cm/s
- concentration at 0.5 h [17]: 88 ng/mL
- Papp B→A at 3 µM (MDR1 (P-gp) [18]): 2.71 ×10⁻⁶ cm/s
- Papp A→B at 3 µM (MDR1 (P-gp) [19]): 4.15 ×10⁻⁶ cm/s
- half-life [20]: 24 h
- Papp A→B at 3 µM (MDR1 (P-gp) [21]): 4.66 ×10⁻⁶ cm/s
- Papp A→B at 3 µM (BCRP [22]): 1.25 ×10⁻⁶ cm/s

SMILES: O=C(O)Cc1ccccc1Nc1c(Cl)cccc1Cl [DICLOFENAC]
- Ki [2]: 5100 nM

SMILES: O=C(O)Cc1ccccc1Nc1c(Cl)cc(O)cc1Cl [4'-HYDROXY-DICLOFENAC]
- Ki [8]: 2100 nM

SMILES: O=C(O)Cc1ccccc1Oc1ccc(O)cc1CC(=O)O
- Ki [2]: 830 nM

SMILES: O=C(O)Cc1ccccc1O
- IC50 [23]: 2100 nM
- Ki [23]: 2000 nM

SMILES: O=c1[nH]nc(Cc2cc(O)ccc2Oc2ccccc2Cl)[nH]1
- Ki [2]: 420 nM

SMILES: O=C(O)Cc1ccc(O)cc1Oc1ccccc1
- Ki [2]: 47 nM

SMILES: O=C(O)/C=C/c1ccccc1 [CINNAMIC ACID]
- Ki [8]: > 100000 nM

SMILES: O=C(O)Cc1cccc(O)c1 [3-Hydroxyphenylacetate]
- IC50 [23]: 130 nM
- Ki [23]: 126 nM

SMILES: Oc1ccc(Oc2ccccc2Cl)c(Cc2nnn[nH]2)c1
- Ki [1]: 94 nM
- concentration at 0.5 h [3]: 1970 ng/mL
- Kp at 0.5 h [6]: 0.012
- concentration at 0.5 h [7]: 22 ng/mL
- Ki [2]: 70 nM

SMILES: O=c1[nH]c(Cc2cc(O)ccc2Oc2ccccc2Cl)no1
- Ki [2]: 1200 nM

SMILES: O=C(O)CCCO [OXYBATE]
- Ki [8]: 4300 nM

SMILES: Oc1ccc(Oc2ccccc2Cl)c(Cc2cc(O)no2)c1
- Ki [2]: 20000 nM

SMILES: O=C(O)Cc1ccc(O)cc1Sc1ccccc1
- Ki [2]: 77 nM

SMILES: O=C(O)Cc1ccc(O)cc1Oc1c(Cl)cccc1Cl
- Ki [2]: 31 nM

SMILES: O=C1Cc2cc(O)ccc2N1c1c(Cl)cccc1Cl
- inhibition [9]: < 50%
- Ki [2]: > 100000 nM
